From patent US10035791B2, “Bicyclic compound and pharmaceutical composition thereof for treating stroke and use thereof” (China Medical University, priority 2016, dated 2018) come the findings set out here.

For one assay, the system named is HIF-1α. Kind of assay: HIF-1α expressions of the NSCs, Western blot. It is filed as cell-based, mice. The method, then: (§1) To prepare the NSCs, after removal of meninges, subventricular zones (SVZ) of lateral ventricles from adult mice brain (4 week-of-age) are aseptically isolated and dissociated as previously described (J Cell Sci 2006; 119, 4467-4474). All steps are operated under sterile conditions. Then, neurosphere culture are prepared in neurobasal (NB) medium (Gibco BRL) supplemented with 2% of B27 (Gibco BRL), 2 mM of L-glutamine (PAN Biotech), 100 U/ml of penicillin/0.1 […] of streptomycin (Gibco BRL). For maintenance and expansion of the cultures, the NB/B27 is further supplemented with 2 μg/mL of heparin (Sigma), 20 ng/mL of FGF-2 (R&D Systems) and 20 ng/mL of EGF (R&D Systems). Neurosphere cultures are maintained at 37° C. in a humidified incubator with 5% CO2. For clonal/low density cultures, primary neurospheres grown at high density are dissociated into a single cell suspension and reseeded into 96-well plates at 100 cells per ml of media and the number of newly formed neurospheres is counted after 7 days. In addition, the Bmi-1 expressions, SOX2 expressions, Nestin expressions, Musashi-1 expressions, BrdU expressions and ki-67 expressions of the newly formed neurospheres are determined by the immunofluorescence staining. […]
(§2) The NSCs are exposed to the various dosages of the Compound 1 (0.1 μM, 1 μM, 10 μM and 100 μM) and cultured in the neurosphere culture. The HIF-1α expressions and the Bmi-1 expressions of the NSCs are detected by the Western blot analysis. […]
(§3) In another example, the HIF-1α expressions of the NSCs are inhibited and then 1 μM of the Compound 1 is added into the medium of the NSCs. The HIF-1α expression and the Bmi-1 expressions of the NSCs are detected by the Western blot analysis. […]
(§4) In still another example, the NSCs are exposed to 1 μM of the Compound 1 and further cultured for various lengths of time (0.5 hour, 1 hour, 4 hours, 8 hours, 16 hours and 24 hours). The HIF-1α expressions and the Bmi-1 expressions of the NSCs are detected by the Western blot analysis. […]
On the technique in general: Immunoblotting shows a protein as a band on a membrane.

The test system of assay [1] is Bmi-1. Kind of assay: Bmi-1 expressions of the NSCs, Western blot. It is filed as cell-based, mice. As to the method: as §1, §2, §3, §4
The test system of assay [2] is Bmi-1. In words: Bmi-1 expressions in the brains of the ischemic rats, Western blot. It counts as in vivo, Sprague-Dawley (SD) rats. From the text: (§5) The ischemic rats are induced by an ischemia-reperfusion model to simulate transient focal cerebral ischemia in rats. Test animals are male Sprague-Dawley (SD) rats weighing 250-300 g. The rats are anesthetized with chloral hydrate (0.4 g/kg IP) and subjected to cerebral ischemia. The ischemia-reperfusion model is induced by ligations of bilateral common carotid arteries (CCAs) and a right middle cerebral artery (MCA). The bilateral CCAs are clamped with non-traumatic arterial clips, and the right MCA is ligated with an 10-0 nylon suture. After 90 minutes ischemia, the suture on the MCA and the arterial clips on CCAs are removed to allow reperfusion. Core body temperature is monitored with a thermistor probe (Hewlett-Packard Model 21090A probe, Hewlett-Packard Company, Andover, Mass.), and maintained at 37° C. with a heating pad during anesthesia. After recovery from anesthesia, rat body temperature is maintained at 37° C. with a heat lamp.
The ischemia-reperfusion model is established as described above. The ischemic rats are injected intraperitonealy with different dosages of the Compound 1 (0.1 mg/kg, 1 mg/kg and 10 mg/kg) at 4 hours after MCA ligation for three consecutive days. Sham rats undergo same protocol with the exception of the ligation of the bilateral CCAs and the right MCA. The rats only injected a vehicle are used as the control. The ischemic rats are decapitated at 4 hours, 16 hours, 24 hours, 36 hours and 72 hours after the Compound 1 injection. The Bmi-1 expressions and the HIF-1α expressions of the ischemic rats are detected by the Western blot analysis.
The ischemic rats are further treated with 100 mg/kg of the 2-ME2 or stereotaxic injected with the LV-Bmi-1-sh or the LV-control-sh to inhibit the HIF-1α expressions and the Bmi-1 expressions, and then the ischemic rats are treated with 1 mg/kg of the Compound 1. The effect of the administration of the Compound 1 on the Bmi-1 expressions in the brains of the ischemic rats which are reduced the Bmi-1 expressions or the HIF-1α expressions are detected by the Western blot analysis.

The subject of the next assay is ischemic rats. Kind of assay: Volume of the infarction after cerebral ischemia, magnetic resonance imaging (MRI). It counts as in vivo, Sprague-Dawley (SD) rats.
From the text: as §5
Further, the ischemic rats are assigned into 5 groups, 4 test groups and 1 control group. The ischemic rats of the test groups are injected with 1 mg/kg of the Compound 1, 30 mg/kg of the genipin, 1 mg/kg of the Compound 1 and 100 mg/kg of 2-ME2, and 1 mg/kg of the Compound 1 and the LV-Bmi-1-sh, respectively. The ischemic rats of the control group are injected with the vehicle. At 7 days after the injection, the ischemic rats of the different groups are anesthetized, and the volume of the infarction thereof is assessed by a magnetic resonance imaging (MRI).

Setting [3] is: 1 μM, 0.5 to 24 hours tested, FIG. 10C.
Where [4] appears, read: 0.1, 1, 10, 100 μM, normoxia (21% O2), in particular 1 μM, FIG. 10A.
The mark [5] stands for this setting: 1 mg/kg, 7 days after the injection, FIGS. 18A, 18B.
Setting [6] is: 1 μM 2-ME2 for 16 hours, then 1 μM Compound 1, FIG. 10B.

Molecules are shown by their SMILES.

As to `COC(=O)C1=CO[C@@H](O)[C@@H]2C(COC(=O)[C@@H](N)Cc3ccccc3)=CC[C@H]12` [Compound 1], the “exposure time at which the NSCs express the most HIF-1α” value in the assay on HIF-1α (setting [3]) worked out at 0.5 h. Further, the “HIF-1α expressions of the NSCs” value in the assay with HIF-1α (setting [4]) is reported as “increased”. For the same compound, in the assay on Bmi-1 [1] (setting [3]), the “exposure time at which the NSCs express the most Bmi-1” value is 16 h. Also, the “Bmi-1 expressions of the NSCs” value in the assay with Bmi-1 [1] (setting [4]) is recorded as “increased”. Besides, the “treatment time with the highest Bmi-1 expression” value with Bmi-1 [2] (1 mg/kg, 4 to 72 hours after injection, FIG. 13A) was found to be 36 h. The “Bmi-1 expressions in the brains of the ischemic rats” value in the assay on Bmi-1 [2] (0.1, 1, 10 mg/kg intraperitoneal, vs control and sham rats, FIGS. 13A to 13C) is recorded as “significantly increases”. For the same compound, the “dosage with the highest Bmi-1 expression” value in the assay on Bmi-1 [2] (0.1, 1, 10 mg/kg tested, 36 hours, FIG. 13B) stood at 1 mg/kg. The “effect on the reduction of the infarction area, compared with genipin” value in the assay on ischemic rats (1 mg/kg Compound 1 vs 30 mg/kg genipin, 7 days) is given as “better than that of the genipin”. Moreover, in the assay with ischemic rats (setting [5]), the “area of the largest infarction (MRI)” value is listed as “significantly reduced” and the “volume of the infarction (MRI)” value is recorded as “significantly reduced”.
On to `COc1cc2c(cc1O)CC[C@@H]1[C@@H]2CC[C@]2(C)[C@@H](O)CC[C@@H]12` [Compound 2-ME2, 2-Methoxyestradiol, reference compound], for which the “enhancement of the HIF-1α expressions induced by the Compound 1 in NSCs” value in the assay on HIF-1α (setting [6]) is reported as “abolished”. Further, the “enhancement of the Bmi-1 expressions induced by the Compound 1 in NSCs” value in the assay with Bmi-1 [1] (setting [6]) is listed as “abolished”. Also, in the assay with Bmi-1 [2] (100 mg/kg 2-ME2 plus 1 mg/kg Compound 1, FIG. 13C), the “increased Bmi-1 expressions by the Compound 1 treatment in brains of ischemic rats” value is reported as “inhibited”. In addition, the “Compound-1-induced reduction of the volume of the infarction (MRI)” value in the assay on ischemic rats (100 mg/kg 2-ME2 plus 1 mg/kg Compound 1, 7 days) is on record as “abolishes”.
